Where “and” joins values, the source holds several entries; their conditions need not be identical. Equal entries are not always repeated. Where two headings read alike, the source gives them in different places.
What was measured:
[1] = target: T1, TEM-1 β-lactamase (Escherichia coli, UniProt P62593); assay: TEM-1 β-lactamase inhibition assay (nitrocefin hydrolysis, 486 nm); type: biochemical
Procedure, shortened: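 TEM-1 activity followed by nitrocefin hydrolysis at 486 nm, 25 °C, 50 mM sodium phosphate pH 7.0, 5% DMSO; inhibitor preincubated with enzyme 10 min before substrate. Ki obtained from rates at increasing inhibitor concentrations fitted to competitive-inhibition equations; penicillin G also used as substrate for KM and kcat.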

[2] = target: β-lactamase wt (Escherichia coli, UniProt P62593); assay: Isothermal titration calorimetry, binding enthalpy, wild type
Procedure: (§1) The binding of the compounds of the present invention to β-lactamase was also measured by isothermal titration calorimetry.
(§2) These experiments, in combination with the inhibition assays, indicate that the compounds identified in this disclosure bind to the wild type as well as drug resistant beta lactamases with favorable binding enthalpies. This is a very important characteristic from the point of view of further optimization since it facilitates the achievement of extremely high affinities and low susceptibilities to drug resistant mutations and naturally occurring polymorphisms.
(§3) Isothermal titration calorimetry was performed on a high-precision VP-ITC titration calorimeter (Microcal Inc., Northampton, Mass.). β-Lactamase solutions were titrated with inhibitors in 50 mM sodium phosphate, 2% DMSO, pH 7.0, with β-lactamase concentrations ranging from 15 to 25 μM and inhibitor concentrations ranging from 300 to 1000 μM. The heat evolved from each injection was obtained by integrating the calorimetric signal. Heat of binding was obtained as the difference between the heat of reaction and the heat of inhibitor dilution. Data were analyzed using Origin 7.0 (OriginLab Corporation, Northampton, Mass.).

[3] = target: β-lactamase M69I (Escherichia coli, UniProt P62593, M67I); assay: Isothermal titration calorimetry, binding enthalpy, M69I mutant
Procedure: as §1, §2, §3

[4] = target: β-lactamase E104K (Escherichia coli, UniProt P62593, E102K); assay: Isothermal titration calorimetry, binding enthalpy, E104K mutant
Procedure: as §1, §2, §3

[5] = target: β-lactamase R244S (Escherichia coli, UniProt P62593, R241S); assay: Isothermal titration calorimetry, binding enthalpy, R244S mutant
Procedure: as §1, §2, §3

[6] = target: β-lactamase mutant E104K (Escherichia coli, UniProt P62593, E102K); type: biochemical; settings: number higher than 1 reflects a loss of potency against mutant
Procedure: (§4) The inhibition of TEM-1 β-lactamase was determined spectrophotometrically. B-lactamase activity was followed by measuring the hydrolysis of nitrocefin, [3-(2,4-dinitrostyryl)-(6R, 7R)-7-(2-thienylacetamido)-ceph-3-em-4-carboxylic acid, E-isomer], (Calbiochem, San Diego, Calif., USA) at 486 nm. Inhibition assays were performed at 25° C. in 50 mM sodium phosphate, 5% DMSO, pH 7.0. […] Inhibitor was added to the enzyme and incubated for ten minutes before the addition of substrate. Inhibition constants (Ki) for the inhibitors are obtained at the desired temperature and solvent conditions by measuring the rate of substrate hydrolysis at increasing amounts of inhibitors.
(§5) Three of the most important mutations are M69I, R244S and E104K.

[7] = target: β-lactamase mutant M69I (Escherichia coli, UniProt P62593, M67I); type: biochemical; settings: number higher than 1 reflects a loss of potency against mutant
Procedure: as §4, §5

[8] = target: β-lactamase mutant R244S (Escherichia coli, UniProt P62593, R241S); type: biochemical; settings: number higher than 1 reflects a loss of potency against mutant
Procedure: as §4, §5

[9] = target: T1, TEM-1 β-lactamase; assay: Isothermal titration calorimetry, binding to TEM-1 β-lactamase (Example 17); settings: ITC
Procedure, shortened: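 TEM-1 β-lactamase (15–25 μM) titrated with inhibitor (300–1000 μM) in 50 mM sodium phosphate, 2% DMSO, pH 7.0. Integrated injection heats were corrected for inhibitor dilution heat to give binding heat.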

[10] = target: T2, AmpC β-lactamase (Escherichia coli, UniProt P00811); type: biochemical; settings: substrate hydrolysis by AmpC, 25° C., pH 7.0
T2 construct: made in house; host or cells: E. coli BL21 (DE3)
Procedure: The competitive inhibition of β-lactamase was determined spectrophotometrically using a Varian (Walnut Creek, Calif.) Cary 100 UV-Visible spectrophotometer. β-lactamase activity was followed by measuring the hydrolysis of nitrocefin, [3-(2,4-dinitrostyryl)-(6R, 7R)-7-(2-thienylacetamido)-ceph-3-em-4-carboxylic acid, E-isomer], (Calbiochem, San Diego, Calif.) at 486 nm. Inhibition assays were performed at 25° C. in 50 mM sodium phosphate, 5% DMSO, pH 7.0. […] Penicillin G (Sigma, St. Louis, Mo.) was also used as a substrate to determine KM and kcat.

T2 sequence (P00811 20-377): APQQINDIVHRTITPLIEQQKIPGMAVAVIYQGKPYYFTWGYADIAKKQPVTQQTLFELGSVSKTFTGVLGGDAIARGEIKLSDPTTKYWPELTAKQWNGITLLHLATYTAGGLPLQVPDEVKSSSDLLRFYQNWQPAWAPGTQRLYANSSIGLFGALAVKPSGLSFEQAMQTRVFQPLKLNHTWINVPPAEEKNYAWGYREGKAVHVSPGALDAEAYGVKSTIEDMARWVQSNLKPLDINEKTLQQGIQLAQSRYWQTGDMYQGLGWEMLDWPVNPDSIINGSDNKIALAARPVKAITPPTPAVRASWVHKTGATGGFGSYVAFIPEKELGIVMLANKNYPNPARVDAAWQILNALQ

Row | Structure (SMILES) | Ki ([1]; Ki from Lineweaver-Burke Analysis, values in parenthesis, Lineweaver-Burke analysis) [µM] | Ki ([1]; Ki, 25° C., 50 mM sodium phosphate, 5% DMSO, pH 7.0, enzyme 5 nM, nitrocefin 167 μM) [µM] | Ki ([1]; Ki, TEM-1 β-lactamase) [µM] | ΔH wt [2] [kcal/mol] | ΔH M69I [3] [kcal/mol] | ΔH E104K [4] [kcal/mol] | ΔH R244S [5] [kcal/mol] | Loss of potency: ratio of the inhibitory constant between mutant and wild type (Potencywt/Potencymutant), E104K [6] | Loss of potency: ratio of the inhibitory constant between mutant and wild type (Potencywt/Potencymutant), M69I [7] | Loss of potency: ratio of the inhibitory constant between mutant and wild type (Potencywt/Potencymutant), R244S [8] | ΔG [9] [kcal/mol] | ΔH [9] [kcal/mol] | −TΔS [9] [kcal/mol] | melting point [°C] | Km [10] | kcat [10] | Km ([10]; read-out: KM) [µM]
1 | O=C(Oc1ccccc1[N+](=O)[O-])c1cc(B(O)O)cc([N+](=O)[O-])c1 [Compound (1b), 3-(2-Nitrophenoxycarbonyl)-5-nitrophenylboronic acid] | 1.18 | 12 ± 3 | 12 | -3.8 | -2 | -3.9 | -9.5 | 0.92 | 1.0 | 1.2 | -6.42 | -4.011 | -2.409 | 128 to 130 |  |  | 
2 | O=C(Cc1cccs1)N[C@@H]1C(=O)N2C(C(=O)O)=C(/C=C/c3ccc([N+](=O)[O-])cc3[N+](=O)[O-])CS[C@H]12 [nitrocefin, 3-(2,4-dinitrostyryl)-(6R, 7R)-7-(2-thienylacetamido)-ceph-3-em-4-carboxylic acid, E-isomer] |  |  |  |  |  |  |  |  |  |  |  |  |  |  | 250 µM and 253 µM | 975 s⁻¹ and 976 ± 46 s⁻¹ | 
3 | CC1(C)S[C@@H]2[C@H](NC(=O)Cc3ccccc3)C(=O)N2[C@H]1C(=O)O [penicillin G, Penicillin G] |  |  |  |  |  |  |  |  |  |  |  |  |  |  |  | 198 ± 4 s⁻¹ | 28 ± 3

Reference: US7183267B2, “β-lactamase inhibitors and methods of use thereof” (priority 2003, dated 2007)
